In ChEMBL document CHEMBL5465560, “Selectivity Literature for EUbOPEN Chemogenomic Library” (2024):

Key:
Settings in all cases: at 10 µM
[1] = biological target: T1, Rhodopsin kinase GRK7 (Homo sapiens) (UniProt Q8WTQ7); assay: Selectivity interaction (KinomeScan (DiscoverX)) EUB0000655a GRK7
T1 sequence (whole entry): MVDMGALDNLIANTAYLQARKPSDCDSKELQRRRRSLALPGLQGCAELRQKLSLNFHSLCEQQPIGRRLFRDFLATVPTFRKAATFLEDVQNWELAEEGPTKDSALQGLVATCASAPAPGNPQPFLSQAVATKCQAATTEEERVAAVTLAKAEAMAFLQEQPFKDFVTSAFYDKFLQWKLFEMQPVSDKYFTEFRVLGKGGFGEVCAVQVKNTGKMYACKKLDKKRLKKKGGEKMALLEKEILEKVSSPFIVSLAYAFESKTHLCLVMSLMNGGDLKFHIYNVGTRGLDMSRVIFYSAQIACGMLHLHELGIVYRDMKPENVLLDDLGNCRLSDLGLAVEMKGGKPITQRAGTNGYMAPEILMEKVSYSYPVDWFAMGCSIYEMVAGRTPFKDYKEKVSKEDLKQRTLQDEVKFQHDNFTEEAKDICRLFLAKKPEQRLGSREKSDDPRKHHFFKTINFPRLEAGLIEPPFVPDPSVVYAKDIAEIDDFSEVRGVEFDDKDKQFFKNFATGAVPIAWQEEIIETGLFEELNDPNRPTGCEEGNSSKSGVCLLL

[2] = biological target: T2, Inhibitor of nuclear factor kappa-B kinase subunit alpha (Homo sapiens) (UniProt O15111); assay: Selectivity interaction (KinomeScan (DiscoverX)) EUB0000666a CHUK
T2 sequence (whole entry): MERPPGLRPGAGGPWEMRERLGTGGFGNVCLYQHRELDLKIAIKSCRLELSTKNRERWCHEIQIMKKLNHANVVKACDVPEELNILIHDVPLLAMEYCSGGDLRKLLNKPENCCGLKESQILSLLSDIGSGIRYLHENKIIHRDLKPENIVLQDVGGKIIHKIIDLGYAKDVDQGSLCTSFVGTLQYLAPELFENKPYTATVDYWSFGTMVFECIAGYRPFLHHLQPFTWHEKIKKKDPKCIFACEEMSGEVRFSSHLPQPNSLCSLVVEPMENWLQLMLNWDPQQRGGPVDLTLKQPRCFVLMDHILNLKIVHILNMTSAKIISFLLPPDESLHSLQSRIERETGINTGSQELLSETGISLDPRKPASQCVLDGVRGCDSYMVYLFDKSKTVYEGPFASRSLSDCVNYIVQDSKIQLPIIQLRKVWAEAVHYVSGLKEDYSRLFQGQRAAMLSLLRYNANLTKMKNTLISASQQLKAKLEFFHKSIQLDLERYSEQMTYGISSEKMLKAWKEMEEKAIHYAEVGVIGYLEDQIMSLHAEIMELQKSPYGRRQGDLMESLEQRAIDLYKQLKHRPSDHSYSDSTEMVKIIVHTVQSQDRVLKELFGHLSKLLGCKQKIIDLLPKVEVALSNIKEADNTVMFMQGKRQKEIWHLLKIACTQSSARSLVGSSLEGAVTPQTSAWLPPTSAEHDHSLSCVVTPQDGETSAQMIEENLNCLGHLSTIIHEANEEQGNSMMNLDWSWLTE

[3] = biological target: Epidermal growth factor receptor (Homo sapiens, UniProt P00533)
Epidermal growth factor receptor, sequence (P00533 whole entry): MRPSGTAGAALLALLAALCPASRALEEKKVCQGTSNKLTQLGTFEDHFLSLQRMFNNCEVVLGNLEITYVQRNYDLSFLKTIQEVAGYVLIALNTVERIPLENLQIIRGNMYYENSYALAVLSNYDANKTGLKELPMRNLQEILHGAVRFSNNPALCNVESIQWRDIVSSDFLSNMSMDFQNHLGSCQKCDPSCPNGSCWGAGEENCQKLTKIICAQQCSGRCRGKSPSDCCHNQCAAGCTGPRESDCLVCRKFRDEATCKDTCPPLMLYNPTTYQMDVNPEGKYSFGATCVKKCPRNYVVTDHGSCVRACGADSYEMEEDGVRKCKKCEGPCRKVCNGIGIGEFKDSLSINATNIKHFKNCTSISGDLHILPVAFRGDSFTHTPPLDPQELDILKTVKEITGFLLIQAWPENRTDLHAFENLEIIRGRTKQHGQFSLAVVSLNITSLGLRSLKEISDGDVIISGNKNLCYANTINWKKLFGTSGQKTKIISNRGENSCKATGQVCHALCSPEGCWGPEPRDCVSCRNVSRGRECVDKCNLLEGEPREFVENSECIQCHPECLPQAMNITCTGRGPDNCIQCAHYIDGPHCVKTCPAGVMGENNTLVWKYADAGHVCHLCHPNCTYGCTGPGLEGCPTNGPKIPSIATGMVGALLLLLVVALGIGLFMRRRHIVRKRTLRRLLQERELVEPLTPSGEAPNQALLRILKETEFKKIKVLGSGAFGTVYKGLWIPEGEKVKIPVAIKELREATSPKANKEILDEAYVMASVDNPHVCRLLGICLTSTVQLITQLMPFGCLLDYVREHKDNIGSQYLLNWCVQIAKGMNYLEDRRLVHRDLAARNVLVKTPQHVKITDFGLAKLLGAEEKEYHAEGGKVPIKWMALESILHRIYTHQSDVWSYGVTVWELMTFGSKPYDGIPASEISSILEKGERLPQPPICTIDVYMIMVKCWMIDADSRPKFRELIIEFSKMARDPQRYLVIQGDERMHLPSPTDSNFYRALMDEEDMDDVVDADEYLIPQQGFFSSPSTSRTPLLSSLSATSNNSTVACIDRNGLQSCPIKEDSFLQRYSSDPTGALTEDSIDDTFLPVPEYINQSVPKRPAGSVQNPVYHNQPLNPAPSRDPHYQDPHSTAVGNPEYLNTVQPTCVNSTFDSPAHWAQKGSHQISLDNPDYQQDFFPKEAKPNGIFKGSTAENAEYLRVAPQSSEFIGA

[4] = biological target: T3, Ephrin type-B receptor 2 (Homo sapiens) (UniProt P29323); assay: Selectivity interaction (Kinase panel (Z-LYTE Assay)) EUB0001632a EPHB2
T3 sequence (whole entry): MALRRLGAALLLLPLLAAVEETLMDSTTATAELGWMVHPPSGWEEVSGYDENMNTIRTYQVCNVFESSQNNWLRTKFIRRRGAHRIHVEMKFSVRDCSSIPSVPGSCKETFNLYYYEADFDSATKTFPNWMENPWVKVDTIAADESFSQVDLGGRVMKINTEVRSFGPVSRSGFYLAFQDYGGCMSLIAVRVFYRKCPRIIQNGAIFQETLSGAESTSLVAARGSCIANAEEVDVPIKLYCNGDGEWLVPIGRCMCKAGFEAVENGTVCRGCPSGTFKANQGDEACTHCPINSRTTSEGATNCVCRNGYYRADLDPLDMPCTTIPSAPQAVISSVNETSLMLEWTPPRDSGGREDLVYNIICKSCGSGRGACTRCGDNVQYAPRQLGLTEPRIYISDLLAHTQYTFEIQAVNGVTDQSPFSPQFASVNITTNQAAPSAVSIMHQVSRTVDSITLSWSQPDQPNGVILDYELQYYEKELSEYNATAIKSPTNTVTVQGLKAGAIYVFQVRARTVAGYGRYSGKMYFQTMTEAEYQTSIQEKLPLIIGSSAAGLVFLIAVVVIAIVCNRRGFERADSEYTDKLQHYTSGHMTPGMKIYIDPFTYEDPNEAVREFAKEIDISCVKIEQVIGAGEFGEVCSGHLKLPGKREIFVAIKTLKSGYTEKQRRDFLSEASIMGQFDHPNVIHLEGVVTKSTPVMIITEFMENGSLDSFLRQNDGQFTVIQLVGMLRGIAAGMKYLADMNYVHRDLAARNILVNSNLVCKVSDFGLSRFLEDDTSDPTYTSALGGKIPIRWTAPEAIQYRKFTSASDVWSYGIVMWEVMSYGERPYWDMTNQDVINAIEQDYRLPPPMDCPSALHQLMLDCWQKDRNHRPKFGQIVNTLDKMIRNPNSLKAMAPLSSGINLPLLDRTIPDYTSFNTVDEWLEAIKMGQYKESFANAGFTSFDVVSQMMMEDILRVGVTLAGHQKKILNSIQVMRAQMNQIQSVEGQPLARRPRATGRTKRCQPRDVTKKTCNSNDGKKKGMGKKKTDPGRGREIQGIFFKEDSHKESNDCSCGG

Q: How did the % of control [1] turn out when CN(C)CCOc1ccc(-c2nc(-c3ccncc3)c(-c3ccc4c(c3)CC/C4=N\O)[nH]2)cc1 was run?
A: 100%

Q: How did the % of control [2] turn out when O=C(NOC[C@H](O)CO)c1ccc(F)c(F)c1Nc1ccc(I)cc1F was run?
A: 100%

Q: Which % of control [3] does the source give for Cc1cc([C@@H](C)Nc2ccccc2C(=O)O)c2nc(N3CCOCC3)cc(=O)n2c1 [AZD-6482] here?
A: 96%

Q: Which % of control [4] does the source give for Cn1cc(-n2cnc3c(NCc4nc5cc(Cl)c(Cl)cc5[nH]4)nc(N4CCOCC4)nc32)cn1 here?
A: 1.86%
